Reference: patent US8466113B2, “4-isopropylphenyl glucitol compounds as SGLT1 inhibitors” (Taisho Pharmaceutical Co., Ltd., priority 2009, dated 2013)

Assay: Kidney concentrations until one week after single oral administration
Assay type: in vivo
Details: Sprague-Dawley (SD/IGS), rat, male Sprague-Dawley rats; for concentration at 24 h / concentration at 72 h / concentration at 168 h: single oral 1 mg/kg
Description: (1) Changes in Kidney Concentrations of Compounds Disclosed in WO07/136116 Until One Week After Oral Administration
SD/IGS rats at 7 weeks of age (male, non-fasting, Charles River Laboratories Japan Inc.) were orally administered with compound 10 or 33 (1 mg/kg) or compound 11 (0.3 mg/kg) prepared in a 0.5% aqueous CMC solution. At 24, 72 and 168 hours after drug administration, the rats were exsanguinated via the postcaval vein under ether anesthesia, and their kidneys were excised after they were confirmed to be euthanized. After the tissue surface was washed with physiological saline, each tissue was measured for its weight and homogenized in 4 volumes of purified water under ice cooling. To each homogenate, an acetonitrile/methanol solution containing an internal standard substance was added to remove proteins, and the supernatant was then subjected to LC-MS/MS (Applied Biosystems API3000). Drug-derived ions generated by electrospray ionization in positive ion mode were detected by selective reaction monitoring. The peak area of the resulting extracted ion chromatogram was analyzed by the internal standard method to calculate the drug concentration in the homogenate.
The internal standard substance used for compounds 10 and 33 was (1S)-1,5-anhydro-1-[5-(4-ethoxybenzyl)-2-methoxy-4-methylphenyl]-1-thio-D-glucitol,ethyl-D5, while the internal standard substance used for compound 11 was compound 11 (trishydroxymethyl-D6; —C(CD2OH)3).

[1] = read-out: Concentration of compounds in kidney After 1 day
[2] = read-out: Concentration of compounds in kidney After 3 days
[3] = read-out: Concentration of compounds in kidney After 7 days

SMILES	concentration at 24 h [1] [ng/g]	concentration at 72 h [2] [ng/g]	concentration at 168 h [3] [ng/g]	concentration at 1 day (single oral 0.3 mg/kg, mean ± S.D., read-out: Concentration of compounds in kidney After 1 day) [ng/g]	concentration at 3 days (single oral 0.3 mg/kg, mean ± S.D., read-out: Concentration of compounds in kidney After 3 days) [ng/g]	concentration at 7 days (single oral 0.3 mg/kg, mean ± S.D., read-out: Concentration of compounds in kidney After 7 days) [ng/g]
Cc1cc(O)c([C@@H]2O[C@H](CO)[C@@H](O)[C@H](O)[C@H]2O)cc1Cc1ccc(CCNC(=O)NC2CCN(Cc3ccccc3)CC2)cc1 [compound 33]	29.8 ± 6.79	25.5 ± 8.68	16.2 ± 3.11			
Cc1cc(O)c([C@@H]2O[C@H](CO)[C@@H](O)[C@H](O)[C@H]2O)cc1Cc1ccc(CCNC(=O)NC(C)(C)CO)cc1 [compound 10]	167 ± 36.3	124 ± 21.2	53.8 ± 7.61			
Cc1cc(O)c([C@@H]2O[C@H](CO)[C@@H](O)[C@H](O)[C@H]2O)cc1Cc1ccc(CCNC(=O)NC(CO)(CO)CO)cc1 [compound 11]				63.5 ± 20.1	67.3 ± 3.15	48.7 ± 18.3
